Entries after “also recorded” stand apart in the source; their conditions may differ.
Experiments:
[1] = tested on: GABAA receptor subunits; assay: Western blotting of streptavidin-captured GABAA receptor subunits with ligand protection; assay type: binding, mouse; conditions: AziPm-click (1) 10 μM, protecting ligand 100 μM, UV irradiation; n = 4
Procedure: (§1) Synaptosomes were resuspended to 1 mg of protein/ml in HEPES buffer medium (in mM: 140 NaCl, 5 KCl, 5 NaHCO3, 1.2 NaH2PO4, 1 MgCl2, 10 glucose, and 10 HEPES (pH 7.4)). […] The samples were allowed to equilibrate for 5 min before being transferred to a parafilm-sealed 1-mm path length quartz cuvette. The sample was then irradiated for 20 min at a peak bandwidth of 350 nm (Rayonet RPR-3500 lamp) ∼6 cm from the light source. Non-irradiated samples were left in the dark at ambient temperature (22–25 °C) for 20 min. All remaining procedures were conducted with restricted light exposure.
To 750 μg of photolabeled or control synaptosome samples, 40 μl of 10% SDS and 2 μl of 5 mM DTT in water were added. Samples were then vortexed, heated for 10 min at 65 °C, and then briefly cooled. Final concentrations of 150 μM azide-biotin (Click Chemistry Tools), 2 mM tris(3-hydroxypropyltriazolylmethyl)amine (Sigma), 1 mM ascorbic acid (Sigma), and 1 mM CuSO4·5H2O (Sigma) were added to each sample and vortexed vigorously. The samples were left in the dark at ambient temperature (22–25 °C) for 1 h with mild agitation. Directly to each sample 4× volume chilled methanol, 1.5× chilled chloroform, and 3× chilled double distilled H2O were added. Samples were vortexed vigorously and centrifuged at 1,400 × g for 30 min at 4 °C. […]

[2] = tested on: α1β2γ2 GABAA receptors; conditions: heterologously expressed receptors; cited from earlier work
[3] = at even 100-fold higher concentrations than propofol; cited from earlier work
[4] = tested on: alkylphenol-binding proteins within synaptosomes; assay: Fluorescent profiling: protection from AziPm-click (1) photolabeling of synaptosomes; parameters: species or system mouse; conditions: propofol 75–375 μM; ketamine 150–450 μM; triplicate
Procedure: as §1

| Structure (SMILES) | protection of GABAA receptor α and β subunits from AziPm-click (1) capture [1] | activity on GABAA receptor [2] | immobilization [3] | fluorescent labeling of synaptosomal proteins by AziPm-click (1) in presence of protecting ligand [4] |
| --- | --- | --- | --- | --- |
| CC(C)c1cccc(C(C)C)c1F [fropofol, 2-fluoro-1,3-diisopropylbenzene] | unable to protect | did not modulate or disrupt propofol potentiation; also recorded: no activity | did not cause immobilization |  |
| CNC1(c2ccccc2Cl)CCCCC1=O (stereo not shown) [ketamine] |  |  |  | no changes in fluorescence intensity |

Source: publication PMC5034043 (The Journal of Biological Chemistry, 2016)
